Reference: US20260014285A1, “POLYPEPTIDE COMPOUND, AND COMPLEX AND USE THEREOF” (HANGZHOU HEALTHYTIDE BIOTECHNOLOGY CO., LTD., priority 2022, published 2026)
Non-standard residues stand in square brackets, D forms with d. Residues, ends and D or L forms follow the SMILES beside them. ξ: configuration not given here. *: point of attachment. DOTA = O=C(O)CN1CCN(CC(=O)O)CCN(CC(=O)*)CCN(CC(=O)O)CC1; NOTA = O=C(O)CN1CCN(CC(=O)O)CCN(CC(=O)*)CC1; PEG4 = NCCOCCOCCOCCOCCC(=O)O; ξIle = CC[C@H](C)C(N)C(=O)O; AEEA = NCCOCCOCC(=O)O; Aib = CC(C)(N)C(=O)O

Assays:
integrin α5β1 = integrin α5β1 (Homo sapiens, UniProt P05556+P08648); assay: Target affinity test by surface plasmon resonance (SPR), integrin α5β1; format: binding; details: for affinity constant (KD) to integrin α5β1, in words: SPR; for Kd: SPR (Biacore T200), CM5 chip, 25° C., KD=Kd/Ka
Experimental: (§1) Surface plasmon resonance (SPR) technique was used to test the affinity of the compound in the examples to the target protein integrin α5β1. Specifically, the following operations were performed.
(§2) The affinity constants (KD) of the compounds to the target proteins integrin α5β1, αvβ3, and αvβ5 were calculated according to the formula of KD=Kd/Ka (the lower the value of KD, the higher the affinity of the compounds of the examples to the target protein integrin α5β1).

in vivo [1] = assay: in vivo; set-up: species or system mice; details: M-NSG, mouse, iv, 100 uCi, total radioactivity
Experimental: (§3) For example, labeling TM4 with radioactive ^68Ga: An aqueous solution of TM4 (DOTA-Asn-Asp-Val-Ile-Asn-OH) (20 μg) was added to the prepared ^68GaCl3 solution, and the pH was adjusted to 3-5 with aqueous sodium acetate and acetic acid. This system was reacted at 70-95° C. for 15 min, and then purified after the reaction was completed to obtain a labeled solution of ^68Ga-DOTA-Asn-Asp-Val-Ile-Asn-OH (^68Ga-TM4).
(§4) All compounds were labeled with ^68Ga in the same way as described above.
Approximately 100 μCi of ^68Ga injection was injected into the tail vein of M-NSG mice inoculated with H1975. […] Table 6 was obtained by image post-processing.

integrin αvβ3 = integrin αvβ3 (Homo sapiens, UniProt P05106+P06756); assay: Target affinity test by surface plasmon resonance (SPR), integrin αvβ3; format: binding; details: SPR (Biacore T200), CM5 chip, 25° C., KD=Kd/Ka
Experimental: as §1, §2

in vivo [2] = assay: in vivo; set-up: species or system mice; details: naked (nude), mouse, iv, 100 uCi, total radioactivity
Experimental: as §3, §4
Approximately 100 μCi of ^68Ga injection was injected into the tail vein of naked mice inoculated with SKOV3.

in vivo [3] = assay: in vivo; set-up: species or system mice; details: naked (nude), mouse, iv, 100 uCi, total radioactivity; remark: listed apart in the source
Experimental: as §3, §4
Approximately 100 μCi of ^68Ga injection was injected into the tail vein of naked mice inoculated with MC38.

integrin α5β1, sequence (P08648 42-995 limits assumed): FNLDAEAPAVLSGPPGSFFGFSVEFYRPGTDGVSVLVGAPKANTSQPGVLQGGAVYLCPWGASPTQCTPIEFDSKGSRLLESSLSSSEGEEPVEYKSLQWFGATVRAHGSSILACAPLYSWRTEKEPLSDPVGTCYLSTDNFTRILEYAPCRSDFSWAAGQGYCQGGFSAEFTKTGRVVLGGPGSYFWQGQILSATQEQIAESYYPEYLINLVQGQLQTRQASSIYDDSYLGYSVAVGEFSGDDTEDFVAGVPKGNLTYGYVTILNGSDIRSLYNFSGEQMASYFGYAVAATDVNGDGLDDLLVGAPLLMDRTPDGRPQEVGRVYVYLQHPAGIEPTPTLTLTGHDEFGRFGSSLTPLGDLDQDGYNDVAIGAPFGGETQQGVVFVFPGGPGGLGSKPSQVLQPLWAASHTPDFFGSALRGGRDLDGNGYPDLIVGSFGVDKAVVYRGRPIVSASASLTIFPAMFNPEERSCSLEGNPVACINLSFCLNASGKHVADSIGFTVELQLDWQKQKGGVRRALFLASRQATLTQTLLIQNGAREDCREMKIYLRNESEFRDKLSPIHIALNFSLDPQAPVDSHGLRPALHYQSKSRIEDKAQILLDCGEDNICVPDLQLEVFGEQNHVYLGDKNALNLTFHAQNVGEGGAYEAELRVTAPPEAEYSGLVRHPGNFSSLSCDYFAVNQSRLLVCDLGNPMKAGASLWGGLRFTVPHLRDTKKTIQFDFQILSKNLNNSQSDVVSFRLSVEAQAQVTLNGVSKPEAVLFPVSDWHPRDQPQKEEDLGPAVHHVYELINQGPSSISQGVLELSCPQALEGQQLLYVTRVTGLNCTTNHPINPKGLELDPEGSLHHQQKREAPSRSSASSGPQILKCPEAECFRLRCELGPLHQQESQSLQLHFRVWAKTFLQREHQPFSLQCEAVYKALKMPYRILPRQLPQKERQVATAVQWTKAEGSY
integrin α5β1, sequence (P05556 21-728 limits assumed): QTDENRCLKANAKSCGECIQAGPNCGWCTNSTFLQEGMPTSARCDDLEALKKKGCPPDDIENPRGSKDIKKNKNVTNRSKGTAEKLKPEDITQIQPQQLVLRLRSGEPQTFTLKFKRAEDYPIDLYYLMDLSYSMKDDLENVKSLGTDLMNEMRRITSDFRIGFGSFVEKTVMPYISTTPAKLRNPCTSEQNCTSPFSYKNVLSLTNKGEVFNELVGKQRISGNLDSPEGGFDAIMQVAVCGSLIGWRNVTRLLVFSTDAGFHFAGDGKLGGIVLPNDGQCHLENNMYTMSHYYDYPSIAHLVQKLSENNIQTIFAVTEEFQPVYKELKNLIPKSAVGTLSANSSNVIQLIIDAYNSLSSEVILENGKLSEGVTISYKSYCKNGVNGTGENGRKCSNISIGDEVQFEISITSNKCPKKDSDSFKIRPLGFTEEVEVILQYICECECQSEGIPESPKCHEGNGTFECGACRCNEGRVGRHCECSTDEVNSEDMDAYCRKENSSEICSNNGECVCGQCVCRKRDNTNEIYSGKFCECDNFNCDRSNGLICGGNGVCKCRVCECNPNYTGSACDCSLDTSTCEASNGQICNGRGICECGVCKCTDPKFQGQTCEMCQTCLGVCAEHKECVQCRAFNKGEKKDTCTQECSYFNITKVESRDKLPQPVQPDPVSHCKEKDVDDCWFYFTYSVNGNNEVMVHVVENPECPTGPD
integrin αvβ3, sequence (P06756 31-992 limits assumed): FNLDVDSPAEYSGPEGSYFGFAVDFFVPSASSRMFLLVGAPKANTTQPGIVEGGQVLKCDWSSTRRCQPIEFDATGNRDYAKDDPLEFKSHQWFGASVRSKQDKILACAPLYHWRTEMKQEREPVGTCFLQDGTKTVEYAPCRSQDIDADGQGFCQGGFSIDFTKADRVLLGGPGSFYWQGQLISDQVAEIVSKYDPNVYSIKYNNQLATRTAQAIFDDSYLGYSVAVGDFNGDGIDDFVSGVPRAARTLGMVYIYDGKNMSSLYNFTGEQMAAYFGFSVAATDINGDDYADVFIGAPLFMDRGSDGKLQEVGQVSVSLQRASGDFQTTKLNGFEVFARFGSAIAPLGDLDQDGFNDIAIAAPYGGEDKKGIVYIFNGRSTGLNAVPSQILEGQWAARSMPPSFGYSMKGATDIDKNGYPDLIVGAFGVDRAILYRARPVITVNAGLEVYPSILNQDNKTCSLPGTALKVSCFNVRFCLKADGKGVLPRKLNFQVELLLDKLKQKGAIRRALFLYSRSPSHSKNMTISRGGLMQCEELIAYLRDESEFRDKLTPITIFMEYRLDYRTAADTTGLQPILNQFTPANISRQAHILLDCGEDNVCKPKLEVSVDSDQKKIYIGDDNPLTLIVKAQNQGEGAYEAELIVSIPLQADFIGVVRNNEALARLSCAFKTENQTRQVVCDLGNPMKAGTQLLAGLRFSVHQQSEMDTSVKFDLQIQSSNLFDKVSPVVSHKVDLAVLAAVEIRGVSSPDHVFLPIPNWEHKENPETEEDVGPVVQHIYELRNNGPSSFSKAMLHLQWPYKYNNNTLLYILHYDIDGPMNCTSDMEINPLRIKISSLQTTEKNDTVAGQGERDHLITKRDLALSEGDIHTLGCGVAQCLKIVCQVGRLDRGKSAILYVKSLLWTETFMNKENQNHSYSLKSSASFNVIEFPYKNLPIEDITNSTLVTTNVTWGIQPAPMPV
integrin αvβ3, sequence (P05106 27-718 limits assumed): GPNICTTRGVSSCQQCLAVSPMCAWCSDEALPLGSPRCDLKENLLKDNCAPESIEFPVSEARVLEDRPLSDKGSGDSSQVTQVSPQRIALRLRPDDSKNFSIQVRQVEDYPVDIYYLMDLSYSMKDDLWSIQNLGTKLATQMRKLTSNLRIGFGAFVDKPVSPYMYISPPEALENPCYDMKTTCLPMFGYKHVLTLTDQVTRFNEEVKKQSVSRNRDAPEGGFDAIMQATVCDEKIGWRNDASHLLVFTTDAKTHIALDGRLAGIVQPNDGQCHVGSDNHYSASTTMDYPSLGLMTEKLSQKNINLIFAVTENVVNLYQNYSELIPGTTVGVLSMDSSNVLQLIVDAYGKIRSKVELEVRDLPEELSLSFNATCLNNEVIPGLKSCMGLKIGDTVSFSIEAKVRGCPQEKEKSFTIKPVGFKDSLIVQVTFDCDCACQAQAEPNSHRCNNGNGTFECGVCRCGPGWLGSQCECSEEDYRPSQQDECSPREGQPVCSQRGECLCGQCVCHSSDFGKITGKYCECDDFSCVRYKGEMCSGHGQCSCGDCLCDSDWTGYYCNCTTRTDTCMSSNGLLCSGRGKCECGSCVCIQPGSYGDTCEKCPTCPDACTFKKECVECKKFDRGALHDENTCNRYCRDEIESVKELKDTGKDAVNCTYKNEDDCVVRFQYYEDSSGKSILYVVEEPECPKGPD

| SMILES | affinity constant (KD) to integrin α5β1, in words (integrin α5β1) | Kd (integrin α5β1) | tissue uptake at 1 h (in vivo [1]; % ID/g Bone) | tissue uptake at 1 h (in vivo [1]; % ID/g Brain) | tissue uptake at 1 h (in vivo [1]; % ID/g Heart) | tissue uptake at 1 h (in vivo [1]; % ID/g Intestine) | tissue uptake at 1 h (in vivo [1]; % ID/g Kidney) | tissue uptake at 1 h (in vivo [1]; % ID/g Liver) | tissue uptake at 1 h (in vivo [1]; % ID/g Lung) | tissue uptake at 1 h (in vivo [1]; % ID/g Muscle) | tissue uptake at 1 h (in vivo [1]; % ID/g Tumor) | further results |
| --- | --- | --- | --- | --- | --- | --- | --- | --- | --- | --- | --- | --- |
| CC[C@H](C)C(NC(=O)[C@@H](NC(=O)[C@H](CC(=O)O)NC(=O)[C@H](CC(=O)O)NC(=O)CNC(=O)[C@H](CCCNC(=N)N)NC(=O)CN1CCN(CC(=O)O)CCN(CC(=O)O)CC1)C(C)C)C(=O)N[C@@H](CC(N)=O)C(=O)N[C@@H](Cc1ccccc1)C(=O)O (stereo partly shown) [TM3] ({NOTA}-RGDDV[ξIle]NF-OH) | better than nM level | 1.92 nM | – | – | – | – | – | – | – | – | – | – |
| CC[C@H](C)[C@H](NC(=O)[C@@H](NC(=O)[C@H](CC(=O)O)NC(=O)[C@H](CC(N)=O)NC(=O)[C@H](CC(=O)O)NC(=O)CNC(=O)[C@H](CCCNC(=N)N)NC(=O)CCOCCOCCOCCOCCNC(=O)CN1CCN(CC(=O)O)CCN(CC(=O)O)CCN(CC(=O)O)CC1)C(C)C)C(=O)N[C@@H](CC(N)=O)C(=O)O [^68Ga-TM7, metal not drawn] ({DOTA-PEG4}-RGDNDVIN-OH) | – | – | 0.24 %ID/g | 0.24 %ID/g | 0.5 %ID/g | 0.45 %ID/g | 64.5 %ID/g | 0.53 %ID/g | 0.3 %ID/g | 0.28 %ID/g | 0.75 %ID/g | – |
| CC[C@H](C)[C@H](NC(=O)[C@@H](NC(=O)[C@H](CC(=O)O)NC(=O)[C@H](CC(N)=O)NC(=O)[C@H](CC(=O)O)NC(=O)CNC(=O)[C@H](CCCNC(=N)N)NC(=O)CN1CCN(CC(=O)O)CCN(CC(=O)O)CCN(CC(=O)O)CC1)C(C)C)C(=O)N[C@@H](CC(N)=O)C(=O)O [TM6] ({DOTA}-RGDNDVIN-OH) | – | 239 nM | – | – | – | – | – | – | – | – | – | – |
| CC[C@H](C)C(NC(=O)[C@@H](NC(=O)[C@H](CC(=O)O)NC(=O)[C@H](CC(N)=O)NC(=O)COCCOCCNC(=O)CN1CCN(CC(=O)O)CCN(CC(=O)O)CCN(CC(=O)O)CC1)C(C)C)C(=O)N[C@@H](CC(N)=O)C(=O)O (stereo partly shown) [TM14] ({DOTA-AEEA}-NDV[ξIle]N-OH) | better than nM level | 9.43 nM | – | – | – | – | – | – | – | – | – | Kd (integrin αvβ3): 36.7 nM |
| CC[C@H](C)[C@H](NC(=O)C(C)(C)NC(=O)[C@H](CC(=O)O)NC(=O)[C@H](CC(N)=O)NC(=O)CN1CCN(CC(=O)O)CCN(CC(=O)O)CCN(CC(=O)O)CC1)C(=O)N[C@@H](CC(N)=O)C(=O)O [^68Ga-TM11, metal not drawn] ({DOTA}-ND[Aib]IN-OH) | – | – | 0.27 %ID/g | 0.21 %ID/g | 0.53 %ID/g | 0.5 %ID/g | 4 %ID/g | 0.43 %ID/g | 0.31 %ID/g | 0.31 %ID/g | 0.94 %ID/g | tissue uptake at 1 h (in vivo [2]; % ID/g Bladder): 4.7 %ID/g; tissue uptake at 1 h (in vivo [2]; % ID/g Bone): 0.04 %ID/g; tissue uptake at 1 h (in vivo [2]; % ID/g Brain): 0.09 %ID/g; tissue uptake at 1 h (in vivo [2]; % ID/g Heart): 0.11 %ID/g; tissue uptake at 1 h (in vivo [2]; % ID/g Intestine): 0.33 %ID/g; tissue uptake at 1 h (in vivo [2]; % ID/g Kidney): 0.52 %ID/g; tissue uptake at 1 h (in vivo [2]; % ID/g Liver): 0.15 %ID/g; tissue uptake at 1 h (in vivo [2]; % ID/g Lung): 0.08 %ID/g; tissue uptake at 1 h (in vivo [2]; % ID/g Muscle): 0.05 %ID/g; tissue uptake at 1 h (in vivo [2]; % ID/g Tumor): 0.42 %ID/g; tissue uptake at 1 h (in vivo [3]; % ID/g Bladder): 18.9 %ID/g; tissue uptake at 1 h (in vivo [3]; % ID/g Bone): 0.08 %ID/g; tissue uptake at 1 h (in vivo [3]; % ID/g Brain): 0.18 %ID/g; tissue uptake at 1 h (in vivo [3]; % ID/g Heart): 0.25 %ID/g; tissue uptake at 1 h (in vivo [3]; % ID/g Intestine): 0.59 %ID/g; tissue uptake at 1 h (in vivo [3]; % ID/g Kidney): 1.2 %ID/g; tissue uptake at 1 h (in vivo [3]; % ID/g Liver): 0.29 %ID/g; tissue uptake at 1 h (in vivo [3]; % ID/g Lung): 0.15 %ID/g; tissue uptake at 1 h (in vivo [3]; % ID/g Muscle): 0.08 %ID/g; tissue uptake at 1 h (in vivo [3]; % ID/g Tumor): 0.73 %ID/g |
| CC[C@H](C)[C@H](NC(=O)[C@@H](NC(=O)[C@H](CC(=O)O)NC(=O)[C@H](CC(N)=O)NC(=O)CCOCCOCCOCCOCCNC(=O)CN1CCN(CC(=O)O)CCN(CC(=O)O)CCN(CC(=O)O)CC1)C(C)C)C(=O)N[C@@H](CC(N)=O)C(=O)O [^68Ga-TM5, metal not drawn] ({DOTA-PEG4}-NDVIN-OH) | – | – | 0.22 %ID/g | 0.25 %ID/g | 0.45 %ID/g | 0.57 %ID/g | 7.4 %ID/g | 0.5 %ID/g | 0.24 %ID/g | 0.21 %ID/g | 1.1 %ID/g | – |
| CC[C@H](C)[C@H](NC(=O)[C@@H](NC(=O)[C@H](CC(=O)O)NC(=O)[C@H](CC(N)=O)NC(=O)CCOCCOCCOCCOCCNC(=O)CN1CCN(CC(=O)O)CCN(CC(=O)O)CCN(CC(=O)O)CC1)C(C)C)C(=O)N[C@@H](CC(N)=O)C(=O)O [TM5] ({DOTA-PEG4}-NDVIN-OH) | better than nM level | 2.77 nM | – | – | – | – | – | – | – | – | – | – |
